The subject of assay [1] is C. elegans. As to the kind of experiment: in vitro. The settings on record: data not shown. From the text: (§1) The non-target species, C. elegans wild-type strain N2 Bristol (courtesy of Dr. G.L. Sutphin, University of Arizona) and Rhabditis blumi DF5010 (Caenorhabditis Genetics Center, University of MN, USA) were maintained in vitro in nematode growth medium (NGM) agar plates seeded with Escherichia coli (Migula) Castellani and Chalmers, strain OP-50, as described previously ([52]). Mixed juveniles and hermaphrodites (5 to 6 days old) were collected from the culture plates prior to the bioassays. Infective third-stage juveniles (IJs) of three non-target entomopathogenic nematode species (H. sonorensis Caborca strain, H. bacteriophora TT01 strain, and Steinernema carpocapsae All strain) were also maintained by rearing them in vivo using wax moth larvae (Galleria mellonella) as the host, according to procedures described previously ([53]), and collected for bioassays within 2 to 4 days of their emergence from nematode-infected cadavers. Nematode population density (number of nematodes per ml) was standardized prior to setting up well-plate bioassays, by adjusting each nematode suspension to a concentration of 100 nematodes in 20 μL of distilled water.
(§2) Twelve-well tissue culture plates were used as the experimental arena. For each of the tested nematode species, an inoculum of 100 nematodes, suspended in 20 μL distilled water, was added to each well. […] For PPA (Enamine) and indole (Alfa Aesar), 13 incremental concentrations were tested ranging from 10 to 400 μg/mL in 1 mL of distilled water (DMSO ≤ 1%; vol/vol). […] Distilled water with 1% DMSO was used as the negative control. To measure the combined nematicidal effects of the three SMs, equal concentrations of two or three SMs were mixed in 1:1 or 1:1:1 mixture. For example, a 20 μg/mL solution of a two-SM mixture contained 20 μg from metabolite A and 20 μg metabolite B, dissolved in 1 mL distilled water. Individual or combined SMs from 10 μg/mL to 200 μg/mL (in 20 μg/ml increments) were prepared in distilled water (DMSO ≤ 1%; vol/vol) and used for the bioassays.
(§3) The well plates were covered with their lids and incubated at 25°C in the dark. For the targeted nematode species, nematicidal activity was recorded at 24 h, 48 h, and 72 h after initial exposure to the individual SMs. For the non-target species, data were only recorded at 24 h after initial exposure to the individual SMs. For SM mixtures, mortality was recorded 24 h after initial exposure of the targeted nematode species. Nematodes were probed with a needle to assess if they were alive, dead, or paralyzed. […] Those nematodes that resumed activity upon probing were considered to suffer from temporary paralysis (impaired motility). Paralyzed nematodes were rinsed at least three times in distilled water and held for an additional 24 h to check for their recovery from temporarily paralysis. […] Experiments were repeated at least three times per treatment for each concentration tested.
(§4) For the toxicity data visualization, the relationship between percent mortality or temporary paralysis and metabolite concentration were described by a sigmoidal curve, which was fitted by the logistical function using the statistical software package SigmaPlot for Windows, version 14.0 (Systat Software Inc.). […] Concentration-response data of single metabolites or SM mixtures were pooled for each concentration and subjected to probit regression analysis using the Polo Plus program (LeOra Software). The LC or EC values, along with the corresponding 95% confidence intervals, were estimated for each single SM or SM mixture at each exposure time, depending on the experimental setting.

Assay [2] concerns R. blumi. The assay is described as follows: in vitro. The settings on record: data not shown.
Description: as §1, §2, §3, §4

The subject of assay [3] is Tylenchulus semipenetrans J2 juveniles. The assay is described as follows: In vitro nematistatic assay (temporary paralysis). The assay is classed as cell-based. The settings on record: for EC50 / EC90 / EC10 / EC25: temporary paralysis.

In brackets after ≈: the same amount, converted by molar mass. Where two headings read alike, the source gives them in different places.

For orientation: EC50 means the concentration needed to bring the measured effect to its halfway point. A word on the EC90: it is the concentration needed for an effect of 90%. Higher therefore signals weaker potency. As to `c1ccc2[nH]ccc2c1` [Indole, indole], the “Concentrations showing nematicidal activity” value in assay [1] and in assay [2] was at least 300 µg/mL throughout. Further, the “Reduction of EC50 for T. semipenetrans versus M. incognita” value in assay [3] (24 h of exposure) is 34%. Also, the “Increase of EC50 at 72 h compared with 24 h” value in assay [3] (T. semipenetrans) was found to be 84%. Moreover, in assay [3] (T. semipenetrans), the “Increase of EC90 at 72 h compared with 24 h” value came out at 79%. The EC50 worked out at 37 µg/mL (≈ 316 µM) in assay [3] (Tylenchulus semipenetrans, 24 h, 24 h exposure, read-out: EC50); 66.2 µg/mL (≈ 565 µM) in assay [3] (Tylenchulus semipenetrans, 48 h, 48 h exposure, read-out: EC50); 68.3 µg/mL (≈ 583 µM) in assay [3] (Tylenchulus semipenetrans, 72 h, 72 h exposure, read-out: EC50); 37.1 µg/mL (≈ 317 µM) in assay [3] (24 h exposure). The EC90 in assay [3] (Tylenchulus semipenetrans, 24 h exposure) is 64.2 µg/mL (≈ 548 µM); in assay [3] (Tylenchulus semipenetrans, 48 h exposure) it was 108 µg/mL (≈ 922 µM); in assay [3] (Tylenchulus semipenetrans, 72 h exposure), 115 µg/mL (≈ 982 µM). Besides, the EC10 in assay [3] (24 h exposure) is 21.4 (12.8, 27.9) μg/mL; in assay [3] (48 h exposure) it was 40.6 (8.18, 57.5) μg/mL; in assay [3] (72 h exposure) it was 40.5 (13.1, 55.8) μg/mL. In addition, the EC25 in assay [3] (24 h exposure) is listed as 27.8 (18.9, 34.2) μg/mL; in assay [3] (48 h exposure) it was 51.2 (16.1, 67.0) μg/mL; in assay [3] (72 h exposure), 51.9 (23.3, 66.0) μg/mL.

The values are drawn from publication PMC8826726, “Selective Toxicity of Secondary Metabolites from the Entomopathogenic Bacterium Photorhabdus luminescens sonorensis against Selected Plant Parasitic Nematodes of the Tylenchina Suborder” (Microbiology Spectrum, 2022).
